The values that follow come from patent US20080292721A1, “Bioactive acid agrichemical compositrions and use thereof” (priority 2007, published 2008).

The assay deals with E. amylovora 153N. As to the kind of experiment: Fire blight on crabapples. It is filed as in vivo. On the set-up: Blossom Incidence / Shoot Incidence: unit not given here. The note with it: for Blossom Incidence: mean of counts; for Canker Size / Shoot Incidence: Day 63. As for the experimental part: A study of the bioefficacy of the various agrichemical compositions, including bioactive acid solutions and blends thereof with an antibiotic agrichemical, were evaluated to assess their bioefficacy against fire blight on crabapples. The study was conducted on 5 year old Snow Drift crabapple trees, with each of the compositions being applied to ten trees in two-subplots of five trees, four different times: at 100% bloom-day 1, a second application was made on day 4, a third on day 11 and a final treatment on day 19. The trees were inoculated with E. amylovora […] at a concentration of 4×10^6 cells per milliliter on day 1, following drying of the treatment, with the inoculation being repeated on day 13. Evaluation for fire blight was completed on 100 blossoms for each of the subplots on day 12, day 19 and day 27. Additionally, the incidence of shoot infection and the length of […] evaluated on day 63. The test compositions were prepared by forming solutions of the bioactive agents. Two different dilutions of the MI2 bioactive were evaluated, the first employing 94.46 ml/gallon (25 ml/l) of water (5 ppm of each metal) and the second 188.9 ml/gallon (50 ml/l) of water (10 ppm of each metal). […] Finally, copper hydroxide was diluted at a rate of 1 lb/gallon (119.8 g/l). Each of the compositions and blends were spray applied at a rate of 50 gallons (189.3 l) pre acre. The results are presented as the mean of the counts.

Turning to `[Cu+2].[OH-].[OH-]` [copper hydroxide], the “Blossom Incidence” value reads like this: (Day 12, rate 5 lbs/a (2.27 kg/a)) 3.1; (Day 19, rate 5 lbs/a (2.27 kg/a)) 2.2; (Day 27, rate 5 lbs/a (2.27 kg/a)) 9.0. In addition, the “Canker Size” value (rate 5 lbs/a (2.27 kg/a)) is listed as 0.0 cm. Moreover, the “Shoot Incidence” value (rate 5 lbs/a (2.27 kg/a)) turned out to be 1.0.
Turning to `[H]/N=C(/N)N[C@H]1[C@H](O)[C@@H](O)[C@H](O[C@@H]2O[C@@H](C)[C@](O)(C=O)[C@H]2O[C@@H]2O[C@@H](CO)[C@H](O)[C@@H](O)[C@@H]2NC)[C@@H](N/C(N)=N\[H])[C@@H]1O` [streptomycin], the “Blossom Incidence” value reads like this: (Day 12, rate 0.49 lb/a) 1.8; (Day 19, rate 0.49 lb/a) 4.8; (Day 27, rate 0.49 lb/a) 3.09. For the same compound, under “rate 0.49 lb/a”, the “Canker Size” value was found to be 0.0 cm. Besides, for the setting “rate 0.49 lb/a”, the “Shoot Incidence” value was found to be 1.2.
